Assays:
Assay in all cases: radiometric filter-binding kinase assay, Kinase HotSpot
Conditions in all cases: compound 0.5 µM; ATP 10 µM
NEK6 (human) = NEK6 (human) (UniProt Q9HC98)
DAPK1 (human) = DAPK1 (human) (UniProt P53355)
TEK (human) = TEK (human) (UniProt Q02763)
INSRR (human) = INSRR (human) (UniProt P14616)
EPHA5 (human) = EPHA5 (human) (UniProt P54756)
MAP3K8 (human) = MAP3K8 (human) (UniProt P41279)
RPS6KB1 (human) = RPS6KB1 (human) (UniProt P23443)
FRK (human) = FRK (human) (UniProt P42685)
TLK2 (human) = TLK2 (human) (UniProt Q86UE8)
EPHA8 (human) = EPHA8 (human) (UniProt P29322)
MYO3B (human) = MYO3B (human) (UniProt Q8WXR4)
TAOK1 (human) = TAOK1 (human) (UniProt Q7L7X3)
PRKCG (human) = PRKCG (human) (UniProt P05129)
MARK3 (human) = MARK3 (human) (UniProt P27448)
DDR2 (human) = DDR2 (human) (UniProt Q16832)
ULK3 (human) = ULK3 (human) (UniProt Q6PHR2)
IRAK1 (human) = IRAK1 (human) (UniProt P51617)
HIPK1 (human) = HIPK1 (human) (UniProt Q86Z02)
BMX (human) = BMX (human) (UniProt P51813)
ADRBK1 (human) = ADRBK1 (human) (UniProt P25098)
ACVR1 (human) = ACVR1 (human) (UniProt Q04771)
IKBKE (human) = IKBKE (human) (UniProt Q14164)
MAP3K2 (human) = MAP3K2 (human) (UniProt Q9Y2U5)
LCK (human) = LCK (human) (UniProt P06239)
BTK (human) = BTK (human) (UniProt Q06187)
BRAF (human) = BRAF (human) (UniProt P15056)
RPS6KA3 KD1 KD2 (human) = RPS6KA3 KD1 KD2 (human) (UniProt P51812)
PRKACG (human) = PRKACG (human) (UniProt P22612)
GRK5 (human) = GRK5 (human) (UniProt P34947)
CDK1 CCNA2 (human) = CDK1 CCNA2 (human) (UniProt P06493+P20248)
EPHA6 (human) = EPHA6 (human) (UniProt Q9UF33)
PDPK1 (human) = PDPK1 (human) (UniProt O15530)
FYN (human) = FYN (human) (UniProt P06241)
AURKC (human) = AURKC (human) (UniProt Q9UQB9)
DYRK1B (human) = DYRK1B (human) (UniProt Q9Y463)
FLT3 (human) = FLT3 (human) (UniProt P36888)
FGFR1 (human) = FGFR1 (human) (UniProt P11362)
STK38 (human) = STK38 (human) (UniProt Q15208)
PRKCZ (human) = PRKCZ (human) (UniProt Q05513)
PRKD2 (human) = PRKD2 (human) (UniProt Q9BZL6)
EGFR (human) = EGFR (human) (UniProt P00533)

Chain of ULK3 (human) (Q6PHR2 whole entry, looked up): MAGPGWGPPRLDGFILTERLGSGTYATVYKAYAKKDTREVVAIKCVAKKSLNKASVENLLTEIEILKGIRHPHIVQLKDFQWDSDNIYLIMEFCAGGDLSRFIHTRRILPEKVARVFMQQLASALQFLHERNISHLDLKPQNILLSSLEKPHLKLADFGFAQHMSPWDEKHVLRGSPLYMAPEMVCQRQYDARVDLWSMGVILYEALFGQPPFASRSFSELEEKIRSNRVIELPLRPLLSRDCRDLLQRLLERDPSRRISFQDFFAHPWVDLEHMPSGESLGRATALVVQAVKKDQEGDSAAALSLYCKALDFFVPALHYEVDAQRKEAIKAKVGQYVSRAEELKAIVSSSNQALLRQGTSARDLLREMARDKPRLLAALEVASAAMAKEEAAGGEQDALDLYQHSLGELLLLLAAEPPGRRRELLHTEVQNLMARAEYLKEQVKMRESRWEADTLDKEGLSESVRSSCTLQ
Chain of BRAF (human) (P15056 whole entry, looked up): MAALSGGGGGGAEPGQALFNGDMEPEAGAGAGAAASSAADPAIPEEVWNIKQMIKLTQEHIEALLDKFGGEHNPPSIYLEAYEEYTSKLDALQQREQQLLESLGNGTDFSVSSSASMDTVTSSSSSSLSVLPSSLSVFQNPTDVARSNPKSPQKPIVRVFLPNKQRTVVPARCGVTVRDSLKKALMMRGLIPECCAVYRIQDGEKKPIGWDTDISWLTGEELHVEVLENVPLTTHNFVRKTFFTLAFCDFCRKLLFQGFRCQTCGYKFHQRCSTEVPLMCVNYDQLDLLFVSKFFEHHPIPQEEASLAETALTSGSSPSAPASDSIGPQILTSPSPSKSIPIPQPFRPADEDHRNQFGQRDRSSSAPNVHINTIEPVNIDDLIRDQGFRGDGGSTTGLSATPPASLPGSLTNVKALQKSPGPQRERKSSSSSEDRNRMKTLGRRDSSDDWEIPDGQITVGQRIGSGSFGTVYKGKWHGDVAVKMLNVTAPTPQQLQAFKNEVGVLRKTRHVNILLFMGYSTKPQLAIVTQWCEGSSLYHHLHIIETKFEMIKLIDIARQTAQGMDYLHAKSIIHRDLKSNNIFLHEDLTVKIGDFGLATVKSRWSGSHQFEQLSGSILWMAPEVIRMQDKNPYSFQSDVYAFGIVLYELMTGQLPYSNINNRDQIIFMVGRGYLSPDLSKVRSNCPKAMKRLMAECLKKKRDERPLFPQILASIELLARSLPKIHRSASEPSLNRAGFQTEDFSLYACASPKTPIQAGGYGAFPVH
Chain of MAP3K2 (human) (Q9Y2U5 whole entry, looked up): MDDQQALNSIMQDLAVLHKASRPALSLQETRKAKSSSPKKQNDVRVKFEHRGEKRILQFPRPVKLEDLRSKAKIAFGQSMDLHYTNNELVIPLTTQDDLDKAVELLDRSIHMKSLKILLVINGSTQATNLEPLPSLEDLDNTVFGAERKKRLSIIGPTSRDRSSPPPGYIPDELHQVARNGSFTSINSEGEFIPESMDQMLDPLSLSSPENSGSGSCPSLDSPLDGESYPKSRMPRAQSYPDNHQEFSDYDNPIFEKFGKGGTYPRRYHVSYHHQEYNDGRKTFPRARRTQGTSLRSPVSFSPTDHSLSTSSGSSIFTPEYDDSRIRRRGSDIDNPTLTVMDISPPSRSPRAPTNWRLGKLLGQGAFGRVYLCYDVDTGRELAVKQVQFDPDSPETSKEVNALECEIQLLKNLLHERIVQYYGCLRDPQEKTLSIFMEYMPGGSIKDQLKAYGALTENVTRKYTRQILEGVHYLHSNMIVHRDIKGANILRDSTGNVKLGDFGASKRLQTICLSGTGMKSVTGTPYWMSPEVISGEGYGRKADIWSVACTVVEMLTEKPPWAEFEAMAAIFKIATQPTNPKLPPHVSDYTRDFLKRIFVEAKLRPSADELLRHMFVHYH
Chain of AURKC (human) (Q9UQB9 whole entry, looked up): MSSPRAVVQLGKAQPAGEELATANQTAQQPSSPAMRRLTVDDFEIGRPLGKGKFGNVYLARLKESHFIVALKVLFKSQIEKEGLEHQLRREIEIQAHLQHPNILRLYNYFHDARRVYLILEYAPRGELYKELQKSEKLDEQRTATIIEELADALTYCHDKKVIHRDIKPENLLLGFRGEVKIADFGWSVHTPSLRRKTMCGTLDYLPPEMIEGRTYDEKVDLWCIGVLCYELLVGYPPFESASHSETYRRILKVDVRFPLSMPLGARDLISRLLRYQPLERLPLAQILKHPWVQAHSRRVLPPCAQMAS
Chain of FLT3 (human) (P36888 whole entry, looked up): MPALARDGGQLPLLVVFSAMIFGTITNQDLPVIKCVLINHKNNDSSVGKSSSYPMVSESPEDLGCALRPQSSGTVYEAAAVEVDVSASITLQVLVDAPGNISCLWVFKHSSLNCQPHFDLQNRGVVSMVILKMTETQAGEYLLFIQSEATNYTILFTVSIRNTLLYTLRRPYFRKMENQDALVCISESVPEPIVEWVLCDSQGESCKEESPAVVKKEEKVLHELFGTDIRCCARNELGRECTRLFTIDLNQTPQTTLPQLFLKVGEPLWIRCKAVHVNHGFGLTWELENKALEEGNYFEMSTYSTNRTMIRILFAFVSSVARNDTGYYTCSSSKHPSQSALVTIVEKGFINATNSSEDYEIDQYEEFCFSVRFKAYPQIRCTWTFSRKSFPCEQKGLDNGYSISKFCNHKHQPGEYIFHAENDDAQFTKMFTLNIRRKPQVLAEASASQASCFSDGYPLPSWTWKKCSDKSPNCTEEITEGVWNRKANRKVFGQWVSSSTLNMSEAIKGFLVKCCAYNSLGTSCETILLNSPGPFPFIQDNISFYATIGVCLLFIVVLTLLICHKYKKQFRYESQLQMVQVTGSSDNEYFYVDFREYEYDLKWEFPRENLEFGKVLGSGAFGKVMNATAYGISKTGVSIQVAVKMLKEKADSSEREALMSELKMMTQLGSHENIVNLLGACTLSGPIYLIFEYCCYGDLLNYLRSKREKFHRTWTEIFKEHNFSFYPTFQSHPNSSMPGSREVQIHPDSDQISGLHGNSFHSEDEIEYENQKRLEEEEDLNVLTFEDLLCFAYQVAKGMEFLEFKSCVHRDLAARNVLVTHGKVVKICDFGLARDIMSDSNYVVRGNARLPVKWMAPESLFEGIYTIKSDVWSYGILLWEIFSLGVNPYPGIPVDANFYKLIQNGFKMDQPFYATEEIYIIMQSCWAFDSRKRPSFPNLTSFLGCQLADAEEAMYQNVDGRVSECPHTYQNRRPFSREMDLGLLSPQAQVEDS
Chain of EPHA6 (human) (Q9UF33 whole entry, looked up): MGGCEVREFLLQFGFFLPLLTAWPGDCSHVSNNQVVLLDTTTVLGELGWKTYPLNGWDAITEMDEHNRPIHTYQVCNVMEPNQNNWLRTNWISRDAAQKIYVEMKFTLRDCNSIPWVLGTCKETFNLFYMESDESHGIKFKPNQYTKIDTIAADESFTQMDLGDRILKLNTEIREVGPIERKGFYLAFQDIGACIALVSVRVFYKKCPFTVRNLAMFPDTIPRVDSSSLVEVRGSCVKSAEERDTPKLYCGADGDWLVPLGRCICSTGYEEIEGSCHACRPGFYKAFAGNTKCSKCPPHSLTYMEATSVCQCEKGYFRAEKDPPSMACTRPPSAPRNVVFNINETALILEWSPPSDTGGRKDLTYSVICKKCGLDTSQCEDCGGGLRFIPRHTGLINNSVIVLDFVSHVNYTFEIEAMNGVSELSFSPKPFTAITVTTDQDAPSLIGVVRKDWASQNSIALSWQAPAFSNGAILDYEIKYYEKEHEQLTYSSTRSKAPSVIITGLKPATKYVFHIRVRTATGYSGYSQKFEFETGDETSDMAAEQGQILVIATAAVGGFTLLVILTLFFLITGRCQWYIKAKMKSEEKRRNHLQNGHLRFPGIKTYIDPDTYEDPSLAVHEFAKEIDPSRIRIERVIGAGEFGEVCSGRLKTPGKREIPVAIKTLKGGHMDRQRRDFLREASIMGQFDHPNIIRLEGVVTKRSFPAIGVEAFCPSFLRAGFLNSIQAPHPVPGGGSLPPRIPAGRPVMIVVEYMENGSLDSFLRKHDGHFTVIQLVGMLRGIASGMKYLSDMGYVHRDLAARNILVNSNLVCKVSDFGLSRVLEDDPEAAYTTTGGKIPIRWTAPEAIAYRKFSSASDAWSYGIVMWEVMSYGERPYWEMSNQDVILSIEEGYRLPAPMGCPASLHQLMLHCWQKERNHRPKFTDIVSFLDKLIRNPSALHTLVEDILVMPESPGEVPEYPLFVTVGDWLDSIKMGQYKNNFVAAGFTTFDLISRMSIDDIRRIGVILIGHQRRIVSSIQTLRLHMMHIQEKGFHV

| Structure (SMILES) | residual activity (NEK6 (human)) | residual activity (DAPK1 (human)) | residual activity (TEK (human)) | residual activity (INSRR (human)) | residual activity (EPHA5 (human)) | residual activity (MAP3K8 (human)) | residual activity (RPS6KB1 (human)) | residual activity (FRK (human)) | residual activity (TLK2 (human)) | residual activity (EPHA8 (human)) | residual activity (MYO3B (human)) | residual activity (TAOK1 (human)) | residual activity (PRKCG (human)) | residual activity (MARK3 (human)) | residual activity (DDR2 (human)) | residual activity (ULK3 (human)) | residual activity (IRAK1 (human)) | residual activity (BMX (human)) | residual activity (ADRBK1 (human)) | residual activity (ACVR1 (human)) | other results |
| --- | --- | --- | --- | --- | --- | --- | --- | --- | --- | --- | --- | --- | --- | --- | --- | --- | --- | --- | --- | --- | --- |
| O=C1NC(=O)c2cc(Nc3ccc(F)cc3)c(Nc3ccc(F)cc3)cc21 | 109% | 81.3% | 97.6% | 111% | 95.4% | 96.3% | 95.5% | 97.2% | 93.5% | 95.5% | 98.2% | 90.3% | 102% | 90.8% | 99.6% | 96.3% | 88.5% | 95.3% | 104% | 92.3% | residual activity (HIPK1 (human)): 102%; residual activity (IKBKE (human)): 100%; residual activity (MAP3K2 (human)): 94.8%; residual activity (LCK (human)): 98.4%; residual activity (BTK (human)): 94.3%; residual activity (BRAF (human)): 94.2%; residual activity (RPS6KA3 KD1 KD2 (human)): 118%; residual activity (PRKACG (human)): 101%; residual activity (GRK5 (human)): 101%; residual activity (CDK1 CCNA2 (human)): 96.1%; residual activity (EPHA6 (human)): 66.8%; residual activity (PDPK1 (human)): 102%; residual activity (FYN (human)): 99.4%; residual activity (AURKC (human)): 90.8%; residual activity (DYRK1B (human)): 105%; residual activity (FLT3 (human)): 91.5%; residual activity (FGFR1 (human)): 92.1%; residual activity (STK38 (human)): 85.5%; residual activity (PRKCZ (human)): 100%; residual activity (PRKD2 (human)): 86.8% |
| Cn1cc(/C=C2\C(=O)Nc3ccc(S(N)(=O)=O)cc32)c2ccccc21 | 98.6% | 98.9% | 95.8% | 86.9% | 69.3% | 96.8% | 44.3% | 97.1% | 63.2% | 83.4% | 74.6% | 98.3% | 106% | 57.2% | 100% | 15.8% | 14.2% | 77% | 100% | 111% | residual activity (EGFR (human)): 77.5%; residual activity (HIPK1 (human)): 97.2%; residual activity (IKBKE (human)): 21.9%; residual activity (MAP3K2 (human)): 92.1%; residual activity (LCK (human)): 57.6%; residual activity (BTK (human)): 30.4%; residual activity (RPS6KA3 KD1 KD2 (human)): 12.4%; residual activity (PRKACG (human)): 101%; residual activity (GRK5 (human)): 86.3%; residual activity (CDK1 CCNA2 (human)): 56.9%; residual activity (EPHA6 (human)): 30.2%; residual activity (PDPK1 (human)): 95%; residual activity (FYN (human)): 45.7%; residual activity (AURKC (human)): 37.1%; residual activity (DYRK1B (human)): 104%; residual activity (FLT3 (human)): 1.56%; residual activity (FGFR1 (human)): 50.2%; residual activity (STK38 (human)): 53.1%; residual activity (PRKCZ (human)): 105%; residual activity (PRKD2 (human)): 87.2% |
| O=c1c(-c2ccc(F)cc2)c(-c2ccncc2)[nH]n1-c1ccc(Cl)cc1 | 106% | 84.5% | 94.4% | 95.4% | 106% | 87.1% | 89.9% | 78.5% | 109% | 94.4% | 90.7% | 102% | 101% | 87.2% | 90.6% | 94.3% | 103% | 95.8% | 106% | 91.7% | residual activity (EGFR (human)): 57.7%; residual activity (IKBKE (human)): 98.3%; residual activity (MAP3K2 (human)): 98.9%; residual activity (LCK (human)): 101%; residual activity (BTK (human)): 83.6%; residual activity (RPS6KA3 KD1 KD2 (human)): 94.3%; residual activity (PRKACG (human)): 91.9%; residual activity (GRK5 (human)): 90.3%; residual activity (CDK1 CCNA2 (human)): 83.1%; residual activity (EPHA6 (human)): 57%; residual activity (PDPK1 (human)): 104%; residual activity (FYN (human)): 94.8%; residual activity (AURKC (human)): 100%; residual activity (DYRK1B (human)): 92.2%; residual activity (FLT3 (human)): 92.8%; residual activity (FGFR1 (human)): 93.7%; residual activity (STK38 (human)): 93.7%; residual activity (PRKCZ (human)): 99%; residual activity (PRKD2 (human)): 73.4% |
| COc1cc2c(cc1OC)-c1[nH]nc(Nc3cccc(F)c3)c1C2 | 105% | 90.7% | 92.5% | 99.2% | 93.4% | 99.9% | 99.1% | 67.9% | 103% | 94.2% | 107% | 76.3% | 102% | 69.9% | 110% | 96.5% | 97.8% | 74.8% | 93% | 107% | residual activity (HIPK1 (human)): 96.4%; residual activity (IKBKE (human)): 93.3%; residual activity (MAP3K2 (human)): 84.5%; residual activity (BTK (human)): 40.8%; residual activity (BRAF (human)): 93.8%; residual activity (RPS6KA3 KD1 KD2 (human)): 94.7%; residual activity (PRKACG (human)): 102%; residual activity (GRK5 (human)): 95.8%; residual activity (CDK1 CCNA2 (human)): 92.6%; residual activity (EPHA6 (human)): 82.7%; residual activity (PDPK1 (human)): 95.9%; residual activity (FYN (human)): 73.4%; residual activity (AURKC (human)): 94.5%; residual activity (DYRK1B (human)): 102%; residual activity (FLT3 (human)): 25%; residual activity (FGFR1 (human)): 99.2%; residual activity (STK38 (human)): 113%; residual activity (PRKCZ (human)): 99.7%; residual activity (PRKD2 (human)): 96.3% |
| N#C/C(=C1/Nc2ccccc2S1)c1ccnc(NCCc2cccnc2)n1 | 101% | 99.3% | 97.5% | 92.2% | 113% | 96% | 98.2% | 97.5% | 102% | 98.5% | 96.1% | 98% | 92.2% | 94.9% | 94.5% | 99.1% | 91.8% | 92.9% | 103% | 100% | residual activity (HIPK1 (human)): 109%; residual activity (IKBKE (human)): 90.3%; residual activity (MAP3K2 (human)): 98.1%; residual activity (LCK (human)): 98.3%; residual activity (BTK (human)): 88.8%; residual activity (BRAF (human)): 96.6%; residual activity (PRKACG (human)): 101%; residual activity (GRK5 (human)): 93.8%; residual activity (CDK1 CCNA2 (human)): 83%; residual activity (EPHA6 (human)): 87.1%; residual activity (PDPK1 (human)): 95.9%; residual activity (FYN (human)): 93.1%; residual activity (AURKC (human)): 96%; residual activity (DYRK1B (human)): 53.2%; residual activity (FLT3 (human)): 58.2%; residual activity (FGFR1 (human)): 99%; residual activity (STK38 (human)): 100%; residual activity (PRKCZ (human)): 102%; residual activity (PRKD2 (human)): 79.2% |
